The values below come from patent US9695155B2, “Herbicidal substituted pyrimidinyloxy benzene compounds” (E. I. DU PONT DE NEMOURS AND COMPANY, priority 2013, dated 2017).

Test [1] concerns sedge, umbrella. In words: Test C flooded paddy test. It is filed as in vivo, Cyperus difformis. The following applies: Flood, scale 0 to 100 (0 no effect, 100 complete control), 13 to 15 days. The essentials:
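Ratings were visual and made relative to untreated controls after 13 to 15 greenhouse days.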

The test system of test [2] is soybean. Nature of the test: Test E postemergence. It is filed as in vivo, Glycine max. From the text: (§1) Seeds of plant species selected from corn (Zea mays), soybean (Glycine max), velvetleaf (Abutilon theophrasti), lambsquarters (Chenopodium album), wild poinsettia (Euphorbia heterophylla), palmer pigweed (Amaranthus palmeri), waterhemp (common waterhemp, Amaranthus rudis), surinam grass (Brachiaria decumbens), large (Lg) crabgrass (Digitaria sanguinalis), Brazilian crabgrass (Digitaria horizontalis), fall panicum (Panicum dichotomiflorum), giant foxtail (Setaria faberii), green foxtail (Setaria viridis), goosegrass (Eleusine indica), johnsongrass (Sorghum halepense), ragweed (common ragweed, Ambrosia elatior), barnyardgrass (Echinochloa crus-galli), sandbur (southern sandbur, Cenchrus echinatus), arrowleaf sida (Sida rhombifolia), Italian ryegrass (Lolium multiflorum), dayflower (Virginia (VA) dayflower, Commelina virginica), field bindweed (Convolvulus arvensis), morningglory (Ipomoea coccinea), nightshade (eastern black nightshade, Solanum ptycanthum), kochia (Kochia scoparia), yellow nutsedge (Cyperus esculentus), cocklebur (common cocklebur, Xanthium strumarium), smartweed (ladysthumb smartweed, and hairy beggarticks (Bidens pilosa), were planted into a silt loam soil and treated preemergence with test chemicals formulated in a non-phytotoxic solvent mixture which included a surfactant.
(§2) At the same time, plants from these crop and weed species and also horseweed (Canada horseweed, Conyza canadensis), waterhemp_RES1, (ALS & Triazine resistant common waterhemp, Amaranthus rudis), and waterhemp_RES2, (ALS & HPPD resistant common waterhemp, Amaranthus rudis) were planted in pots containing Redi-Earth® planting medium (Scotts Company, 14111 Scottslawn Road, Marysville, Ohio 43041) comprising spaghnum peat moss, vermiculite, wetting agent and starter nutrients were treated with postemergence applications of test chemicals formulated in the same manner. Plants ranged in height from 2 to 18 cm for postemergence treatments (1- to 4-leaf stage). Treated plants and controls were maintained in a greenhouse for 14 to 21 days, after which time all species were compared to controls and visually evaluated. Plant response ratings, summarized in Table E, are based on a scale of 0 to 100 where 0 is no effect and 100 is complete control. A dash (-) response means no test result.

Test [3] concerns wild poinsettia. Nature of the test: Test E postemergence. It is filed as in vivo, Euphorbia heterophylla.
Text: as §1, §2

Test [4] relates to arrowleaf sida. In words: Test E postemergence. It is filed as in vivo, Sida rhombifolia.
Text: as §1, §2

Test [5] relates to Italian ryegrass. In words: Test E postemergence. It is filed as in vivo, Lolium multiflorum.
Text: as §1, §2

The test system of test [6] is dayflower. In words: Test E postemergence. It is filed as in vivo, Commelina virginica.
Text: as §1, §2

Test [7] deals with field bindweed. Nature of the test: Test E postemergence. It is filed as in vivo, Convolvulus arvensis.
Text: as §1, §2

In test [8] the test system is hairy beggarticks. Nature of the test: Test E postemergence. It is filed as in vivo, Bidens pilosa.
Text: as §1, §2

The mark [9] stands for this setting: Postemergence, 31 g ai/ha, scale 0 to 100.
The mark [10] stands for this setting: Postemergence, 62 g ai/ha, scale 0 to 100.
[11] abbreviates: Postemergence, 125 g ai/ha, scale 0 to 100.
Where [12] appears, read: postemergence, 16 g ai/ha, scale 0 to 100, 0 no effect, 100 complete control.

`N#Cc1cccc(Oc2ncc(Cl)cn2)c1-n1cc(OC(F)F)cn1` [Compound 97]: the “Plant response rating, Sedge, Umbrella” value was found to be 60 in test [1] (31 g ai/ha), 60 in test [1] (62 g ai/ha), 75 in test [1] (125 g ai/ha) and 80 in test [1] (250 g ai/ha).
Regarding `FC(F)c1cnn(-c2c(Cl)cccc2Oc2ncc(Cl)cn2)c1` [Compound 192], the “Plant response rating, Sedge, Umbrella” value in test [1] (31 g ai/ha) stood at 0; in test [1] (62 g ai/ha), 0; in test [1] (125 g ai/ha), 50; in test [1] (250 g ai/ha) it was 85.
For `Clc1cnc(Oc2cccc(Cl)c2-n2cc(I)cn2)nc1` [Compound 181], the “Plant response rating, Soybean” value is reported as 80 in test [2] (setting [9]), 90 in test [2] (setting [10]), 95 in test [2] (setting [11]) and 50 in test [2] (setting [12]). Also, the “Plant response rating, Poinsettia, Wild” value in test [3] (setting [9]) is given as 50; in test [3] (setting [10]), 50; in test [3] (setting [11]) it was 60; in test [3] (setting [12]), 40. Moreover, the “Plant response rating, Arrowleaf Sida” value was 75 in test [4] (setting [9]), 70 in test [4] (setting [10]), 95 in test [4] (setting [11]) and 60 in test [4] (setting [12]). In addition, the “Plant response rating, Ryegrass, Italian” value in test [5] (setting [9]) is on record as 5; in test [5] (setting [10]), 10; in test [5] (setting [11]) it was 20; in test [5] (setting [12]) it was 5. In addition, the “Plant response rating, Dayflower, VA” value in test [6] (setting [9]) is 30; in test [6] (setting [10]), 40; in test [6] (setting [11]) it was 60; in test [6] (setting [12]), 20. The “Plant response rating, Field Bindweed” value in test [7] (setting [9]) was determined as 40; in test [7] (setting [10]), 40; in test [7] (setting [11]) it was 50; in test [7] (setting [12]), 25. Besides, the “Plant response rating, Beggarticks” value in test [8] (setting [9]) was found to be 40; in test [8] (setting [10]) it was 50; in test [8] (setting [11]) it was 60; in test [8] (setting [12]), 40.
`Fc1cccc(Oc2ncc(Cl)cn2)c1-n1cc(Cl)cn1` [Compound 177]: the “Plant response rating, Sedge, Umbrella” value in test [1] (31 g ai/ha) is listed as 0; in test [1] (62 g ai/ha), 0; in test [1] (125 g ai/ha), 60; in test [1] (250 g ai/ha) it was 85.
Turning to `Fc1cccc(Oc2ncc(Cl)cn2)c1-n1cc(C(F)F)nn1` [Compound 141, 5-chloro-2-[2-[4-(difluoromethyl)-1H-1,2,3-triazol-1-yl]-3-fluorophenoxy]pyrimidine], the “Plant response rating, Sedge, Umbrella” value in test [1] (31 g ai/ha) is recorded as 0; in test [1] (62 g ai/ha), 40; in test [1] (125 g ai/ha) it was 75; in test [1] (250 g ai/ha), 100.
Consider `FC(F)c1cnn(-c2ccccc2Oc2ncc(Cl)cn2)c1` [Compound 80, 5-chloro-2-[2-[4-(difluoromethyl)-1H-pyrazol-1-yl]phenoxy]pyrimidine], for which the “Plant response rating, Sedge, Umbrella” value in test [1] (250 g ai/ha) was 0; in test [1] (500 g ai/ha), 0; in test [1] (1000 g ai/ha), 60; in test [1] (2000 g ai/ha) it was 85.
